{"source": "patent US20230093131A1", "about": "“ASSESSING AND TREATING ALCOHOL-ASSOCIATED LIVER DISEASE” (Mayo Foundation for Medical Education and Research, priority 2020, published 2023)", "key": {"[1]": {"tested_on": "alcohol fed/LPS C57BL/6 mice", "assay": "Murine chronic alcohol feeding/LPS model with iBET151", "assay_type": "in vivo, mouse", "experimental": "FIG. 23: Bromodomain Inhibitor iBET151 Attenuates Liver CXCL Production and Neutrophil Infiltration in a Murine Alcohol Feeding/LPS Model. A) Schematic of alcohol feeding protocol. Mice were fed 5% alcohol diet or pair-fed control diet for 10 days. A subset of mice also received IP injection of iBET151 compound. Alcohol fed mice also received IP injection of LPS on day 11, 8 hours before sacrifice (n=6-8 in pair-fed groups, n=12-14 in alcohol fed groups). […] This response was attenuated by iBET151 injections. Expression levels were normalized to average expression of pair-fed control mice. C) IHC for MPO (neutrophil marker) is shown, with number of neutrophils per low power fields on y-axis. […] For all analysis, two-way ANOVA was performed on normalized expression values for qPCRs or cell counts for IHC staining or ALT values, with Post-hoc Tukey's multiple comparisons correction.\nWT C57BL/6 mice (10-12 weeks) were purchased from Envigo Laboratories. Mice were subjected to chronic alcohol feeding to induce alcohol-induced liver injury with modification to the NIAAA model (see, e.g., Kong et al., Sci. Rep., 7(1):9292 (2017)). Briefly, mice were acclimated to liquid diet for 5 days, and were fed either 5% alcohol containing liquid diet or isocaloric pair-fed control diet. On Day 11, LPS (Invivogen tlrl-eblps) was intraperitoneally (IP) injected at 4 mg/kg to alcohol-fed mice. PBS of the same volume was given to pair-fed mice. All mice were sacrificed 8 hours later. A subset of mice, concurrent with alcohol or pair-feeding, was given injection of iBET151 daily. Mice were injected IP with iBET151 (6 mg/kg) in 10% Kleptose 2% DMSO solution or equal volume of carrier solution. On Day 11, drug or vehicle was administered 1 hour before LPS injection.\nTo generate an in vivo model with more exaggerated inflammation that could simulate human AH, a protocol of the chronic alcohol feeding model was modified by substituting the alcohol binge with a single LPS injection (FIG. 23A; see, also, Kong et al., Sci. Rep., 7(1):9292 (2017)). […] There was a significant increase in serum alanine aminotransferase (ALT) in alcohol fed/LPS mice (FIG. 23D). To assess the role of super enhancer activation in alcohol fed/LPS induced liver inflammation, the pan-BET inhibitor iBET151 was given to mice as daily IP injections alongside alcohol feeding or LPS injection."}, "NF-κB": {"tested_on": "NF-κB", "assay": "ChIP-qPCR for NF-κB binding at CXCL super enhancer and CXCL1 promoter sites in LSECs", "assay_type": "cell-based, human", "settings": "with and without TNFα, after inhibitor pretreatment, FIG. 20C, 20D", "experimental": "FIG. 20: Bromodomain inhibitors suppress expression of CXCLs by inhibition of transcription factor binding at CXCL super enhancer and promoter sites. A) LSECs were pretreated with iBET151 ([…]) (n=4). CXCL1, 6, and 8 expression levels were assessed by qPCR. Expression levels were normalized to basal condition and log10 fold change values were plotted. One-way matched-pairs ANOVA analysis was performed with Post-hoc Dunnett's multiple comparison correction. B and C) ChIP-qPCR assays for BRD4 binding (B) or NF-κB binding (C) with and without TNFα stimulation was assessed at CXCL super-enhancer and CXCL1 promoter sites after pretreatment with iBET151. D and E) Same experiments were repeated with Celastrol. Enrichment for either CXCL1 promoter (Promoter) or CXCL super enhancer (Super Enhancer) sequence was examined. Sequence enrichment was normalized to input. Box plots show […] quartiles and third quartiles; whiskers show maximum and minimum values. Two-way matched-pairs ANOVA was performed on log-transformed input percentage, with Post-hoc Sidak's multiple comparisons correction (n=3).\nLSECs were treated with appropriate conditions as outlined separately, and underwent CHIP according to Millipore High-Sens ChIP kit (Millipore MAGNA0025) manufacture protocols. […]"}, "LSEC CXCL expression": {"tested_on": "LSEC CXCL expression", "assay": "CXCL expression (qPCR) in LSECs pretreated with inhibitor, with or without TNFα stimulation", "assay_type": "cell-based, human", "procedure": "A) LSECs were pretreated with iBET151 (0-50 M) (n=4). CXCL1, 6, and 8 expression levels were assessed by qPCR. Expression levels were normalized to basal condition and log10 fold change values were plotted. One-way matched-pairs ANOVA analysis was performed with Post-hoc Dunnett's multiple comparison correction.\nLSECs were pretreated with iBET151 (0-50 M) (n=4). CXCL2, 3, and 5 expression levels were assessed by qPCR. Expression levels were normalized to basal condition and log10 fold change values were plotted. One-way matched-pairs ANOVA analysis was performed with Post-hoc Dunnett's multiple comparison correction. Error bars indicate SD.\nPrimary human LSECs were purchased from ScienCell (Cat #5000) and cultured using standard cell culture techniques. Where appropriate, LSECs underwent TNFα (Peprotech, 300-01A) stimulation at 20 ng/mL. For experiments with BRD4 inhibitor, iBET151 (Cayman Chemical 11181), low passage LSECs were plated at 70% confluency and cultured overnight. Next, LSECs were serum starved for 2 hours in low serum medium (0.5% FBS in basal endothelial medium (Lonza CC-3121)). Inhibitors were added at concentrations indicated to low-serum medium, and cells were incubated in inhibitor containing medium for 2 hours. After inhibitor treatment, medium change was performed with TNFα (Peprotech 300-01A) at 20 ng/mL or control low-serum medium for 90 minutes incubation. LSECs were then collected for analysis. […] RNA was extracted and qPCR performed for expression of CXCLs."}, "LSECs": {"tested_on": "LSECs", "assay": "iBET151 LSEC cytotoxicity assay (IncuCyte)", "assay_type": "cell-based, human", "settings": "iBET151 and/or TNFα, ~30 minute intervals for 10 hours, FIG. 22", "experimental": "FIG. 22: iBET151 LSEC cytotoxicity assay. IncuCyte system was utilized to image cells and assess for cytotoxicity. Dying cells (black arrows) are stained green by fluorescent dye, and green cells are counted for each low power image field. Cells were pretreated with control medium or iBET151 and/or TNFα, and quantification for the percentage of dead cells was done at ˜30 minutes intervals for 10 hours starting at 15 minutes. Images shown were acquired after 4 hours of incubation. […] Error bars indicate SD, n=3."}, "[2]": {"tested_on": "BET proteins (BRD2, 3, 4 and T)", "settings": "Seal et al., Bioorg. Med. Chem. Lett. 2012; cited from earlier work"}, "BRD4": {"biological_target": "T1, BRD4 (Homo sapiens, UniProt O60885)", "T1 construct": "Soluble chromatin was aliquoted and immunoprecipitated with magnetic beads with antibodies for BRD4 (Abcam ab128874); host or cells: primary human liver sinusoidal endothelial cells (LSECs)", "assay": "ChIP-qPCR for BRD4 binding at CXCL super enhancer and CXCL1 promoter sites in LSECs", "assay_type": "cell-based", "settings": "with and without TNFα, after inhibitor pretreatment, FIG. 20B, 20E", "procedure": "B and C) ChIP-qPCR assays for BRD4 binding (B) or NF-κB binding (C) with and without TNFα stimulation was assessed at CXCL super-enhancer and CXCL1 promoter sites after pretreatment with iBET151. D and E) Same experiments were repeated with Celastrol. Enrichment for either CXCL1 promoter (Promoter) or CXCL super enhancer (Super Enhancer) sequence was examined. Sequence enrichment was normalized to input. Box plots show top quartiles and third quartiles; whiskers show maximum and minimum values. Two-way matched-pairs ANOVA was performed on log-transformed input percentage, with Post-hoc Sidak's multiple comparisons correction (n=3).\nLSECs were treated with appropriate conditions as outlined separately, and underwent CHIP according to Millipore High-Sens ChIP kit (Millipore MAGNA0025) manufacture protocols. Briefly, cells were crosslinked with formaldehyde (1% final concentration) followed by glycine treatment (100 mM) for 5 minutes each. Cells were washed, collected, and pelleted with centrifugation, and were then lysed with cell lysis buffer. Cells were repelleted and underwent nuclear lysis with provided nuclear lysis buffer, and DNA was sheared with ultrasonification. Soluble chromatin was aliquoted and immunoprecipitated with magnetic beads with antibodies for BRD4 (Abcam ab128874), NF-κB (Cell signaling 8242S), or H3K9me3 (Abcam ab8898) with appropriate isotype controls. […]"}, "[3]": {"tested_on": "S1P receptors on primary human macrophages", "assay": "EV-activated macrophage inflammation (AH EVs on PBMC-derived macrophages)", "assay_type": "cell-based", "experimental": "FIG. 14: EV-activated macrophage inflammation is SIP-dependent. A) TNF-α and B) IL-1β responses in primary human macrophages from AH subjects treated with EVs derived from HD (HD EV) or AH (AH EV) for 4 hours showing a significant increase in both cytokines by AH-EVs.\nPBMC-derived macrophages were treated with EVs derived from HD or AH subjects."}, "AH patients": {"tested_on": "AH patients", "assay": "EV counts in AH patients after IL-22 treatment", "assay_type": "in vivo, human", "description": "(§1) IL-22 is being investigated as a potential therapy in AH due to its hepatoprotective effects. To investigate if IL-22 can inhibit ethanol-induced EV release, HepG2Cyp2E1 (human hepatoma cells that can metabolize ethanol due to the enforced expression of cytochrome P450 2E1) cells were pretreated with IL-22 prior to the addition of ethanol. Subsequently, EVs were isolated from cell culture supernatants by UTC and quantified with NTA. Similarly, IL-22 reduced EV counts in AH patients after treatment."}, "HepG2Cyp2E1 cells": {"tested_on": "HepG2Cyp2E1 cells", "assay": "Ethanol-induced EV release from HepG2Cyp2E1 cells (UTC isolation, NTA count)", "assay_type": "cell-based, human", "settings": "HepG2Cyp2E1 cells pretreated with IL-22 prior to ethanol", "description": "as §1"}, "[4]": {"settings": "alcohol fed/LPS mice, iBET151 6 mg/kg IP daily, FIG. 23B"}}, "note": "Entries after “also recorded” stand apart in the source; their conditions may differ."}
{"molecule": "COc1cc2c(cc1-c1c(C)noc1C)ncc1[nH]c(=O)n([C@H](C)c3ccccn3)c12", "note": "[iBET151]", "values": [{"measurement": "cleaved caspase 3 level in liver (Western blot)", "setting": "[1]; alcohol fed/LPS mice given iBET151, FIG. 26A", "value": "decrease; also recorded: attenuated"}, {"measurement": "hepatic expression of Cxcl1 (qPCR)", "setting": "[1]; [4]", "value": "significantly decreased"}, {"measurement": "hepatic expression of Cxcl2 (qPCR)", "setting": "[1]; [4]", "value": "significantly decreased"}, {"measurement": "neutrophil infiltration of the liver (Ly6g expression, MPO IHC)", "setting": "[1]; alcohol fed/LPS mice, iBET151 6 mg/kg IP daily, FIG. 23B, 23C", "value": "decreased"}, {"measurement": "steatosis (BODIPY 493/503 stain)", "setting": "[1]; alcohol fed/LPS mice, iBET151 6 mg/kg IP daily, FIG. 25, 6 mg/kg", "value": "decreased; also recorded: attenuated"}, {"measurement": "liver CXCL chemokine production/elevation (qPCR)", "setting": "[1]; alcohol feeding and LPS injection, IP iBET151, figure legends FIG. 19, FIG. 23B", "value": "attenuated"}, {"measurement": "neutrophil marker Ly6g (qPCR)", "setting": "[1]; alcohol/LPS mice, IP iBET151, figure legends FIG. 19, FIG. 23B", "value": "reduced; also recorded: attenuated"}, {"measurement": "Malondialdehyde (MDA), lipid peroxidation, in mice livers", "setting": "[1]; pair-fed or EtOH+LPS, vehicle or iBET151, FIG. 26B", "value": "no difference among treatment groups"}, {"measurement": "8-Hydroxy-2′-deoxyguanosine (8-OHdG), DNA oxidation, in mice livers", "setting": "[1]; pair-fed or EtOH+LPS, vehicle or iBET151, FIG. 26C", "value": "no difference among treatment groups"}, {"measurement": "NF-κB binding at CXCL super enhancer and CXCL1 promoter sites (ChIP)", "setting": "NF-κB", "value": "trend for decreased"}, {"measurement": "CXCL expression after TNFα stimulation", "setting": "LSEC CXCL expression; HHSEC pretreated with varying amounts of iBET151, FIG. 18", "value": "suppresses"}, {"measurement": "CXCL2, 3, 5 expression (qPCR)", "setting": "LSEC CXCL expression; LSECs pretreated with iBET151 (0-50 M), with TNFα and without TNFα, FIG. 21", "value": "linear trend for decreasing"}, {"measurement": "LSEC CXCL expression", "setting": "LSEC CXCL expression; in vitro, in the presence of iBET151, FIG. 20A, 21A, iBET151 0-50 M, TNFα 20 ng/mL", "value": "significantly decreased"}, {"measurement": "cytotoxicity (percentage of dead cells)", "setting": "LSECs", "value": "without significant cytotoxicity; also recorded: no significant difference among treatment groups"}, {"measurement": "activity against both bromodomains (BD) of all four BET proteins", "setting": "[2]", "value": "highly specific activity"}, {"measurement": "BRD4 occupancy/binding at CXCL super enhancer and CXCL1 promoter sites (ChIP)", "setting": "BRD4", "value": "inhibitory effect"}]}
{"molecule": "CCCCCCCCc1ccc(CCC(N)(CO)CO)cc1", "note": "[FTY720]", "values": [{"measurement": "AH EV-activated proinflammatory signaling in macrophages", "setting": "[3]; PBMC-derived macrophages treated with AH EVs", "value": "significantly inhibited"}, {"measurement": "TNF-α response to AH EVs", "setting": "[3]; primary human macrophages from AH subjects, EVs for 4 hours, FTY 720 1 μM, FIG. 14A", "value": "significantly reduced"}, {"measurement": "IL-1β response to AH EVs", "setting": "[3]; primary human macrophages from AH subjects, EVs for 4 hours, FTY 720 1 μM, FIG. 14B", "value": "significantly reduced"}]}
{"molecule": "IL-22: IL-22 polypeptide, hepatoprotective cytokine investigated as potential therapy in AH (protein, UniProt Q9GZX6 34-179, looked up) Interleukin-22: APISSHCRLDKSNFQQPYITNRTFMLAKEASLADNNTDVRLIGEKLFHGVSMSERCYLMKQVLNFTLEEVLFPQSDRFQPYMQEVVPFLARLSNRLSTCHIEGDDLHIQRNVQKLKDTVKKLGESGEIKAIGELDLLFMSLRNACI", "values": [{"measurement": "EV counts in AH patients", "setting": "AH patients", "value": "reduced"}, {"measurement": "ethanol-induced EV release", "setting": "HepG2Cyp2E1 cells", "value": "significantly inhibited"}]}
